Experimental data published in paper PMC10804683, “Identification of the pyridoxal 5′‐phosphate allosteric site in human pyridox(am)ine 5′‐phosphate oxidase” (Protein Science : A Publication of the Protein Society, 2024).
Changes are numbered by the printed parent chain.

Assays:
[1] = target: T1, human PNPO wild type (Homo sapiens, UniProt Q9NVS9); experiment: PLP inhibition kinetics of PNP oxidation, wild type; type: biochemical; parameters: a main form corresponding to the entire protein; made in house; host or cells: E. coli BL21(DE3); details: Na-HEPES pH 7.6, 2 μM enzyme, PLP 0–16 μM
T1 sequence (Q9NVS9 1-261): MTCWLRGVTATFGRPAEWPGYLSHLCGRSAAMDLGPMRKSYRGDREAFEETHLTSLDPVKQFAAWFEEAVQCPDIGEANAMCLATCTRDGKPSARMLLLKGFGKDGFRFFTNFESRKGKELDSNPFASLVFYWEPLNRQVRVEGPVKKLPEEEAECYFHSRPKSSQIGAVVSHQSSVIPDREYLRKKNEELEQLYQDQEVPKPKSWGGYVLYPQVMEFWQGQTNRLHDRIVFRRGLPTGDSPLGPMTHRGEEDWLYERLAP
Experimental: This is a general inhibition mechanism that takes into account the possibility of PLP binding to both the active and allosteric sites. PLP binding at the active site gives a complete, competitive inhibition, whereas PLP binding at the allosteric site yields a substrate‐enzyme‐PLP ternary complex that is still catalytically active, although k CAT is reduced by a coefficient whose value is around 0.15. A thorough inhibition kinetic characterization was carried out with the wild type, F48A, F48A/E50L/R258L, and F48A/E50L/H248N/R258L PNPO forms, so as to evaluate the effect of the variations on the allosteric properties of the enzyme. The initial velocity of PNP conversion into PLP was measured in Na‐HEPES buffer (in which PLP is allowed to accumulate) by varying substrate concentration at different, fixed exogenous PLP concentrations, using 2 μM enzyme. A series of saturation curves were obtained that were used to fit the Michaelis–Menten equation (Figure 5), acquiring apparent V MAX and K M values as a function of PLP concentration. […]
FIGURE 5 Characterization of PLP inhibition. Upper panels: The initial velocity of the reaction was measured with 2 μM wild type (a), and the F48A (b), F48A/E50L/R258L (c), and F48A/E50L/H248N/R258L (d) PNPO variants, varying PNP concentration while keeping exogenous PLP fixed at different concentrations (0, 0.25, 0.5, 1, 2, 4, 8, and 16 μM). […]

[2] = target: T2, human PNPO F48A variant (holo-enzyme) (Homo sapiens, UniProt Q9NVS9, F48A); experiment: PLP binding by FMN fluorescence changes, holo F48A; details: 100 nM enzyme, read-out: PLP binding KD^FLUO
T2 construct: a main form corresponding to the entire protein; made in house; host or cells: E. coli BL21(DE3)
T2 sequence (Q9NVS9 1-261 F48A): T1 sequence (Q9NVS9 1-261) with F48A
Text: PLP binding to PNPO can be detected and quantitatively measured using differential scanning fluorimetry (DSF) and also by measuring FMN fluorescence changes. We had previously attributed DSF changes to PLP binding at the active site, while FMN fluorescence changes were attributed to PLP binding at the allosteric site (Barile et al., [2019], [2020]). Previous experiments carried out with the PNPO R161C variant, affecting a residue that is essential for substrate binding and catalysis (and therefore also for PLP binding at the active site), confirms that DSF measurements only report PLP binding at the active site (Barile et al., [2021]; Table 1). […] We expected to observe no FMN fluorescence changes upon titration of the variants with PLP. However, this was not the case, and the dissociation constant values obtained by observing the FMN fluorescence emission were only up to threefold larger in the variants with respect to wild type PNPO (Figure 3). […] To check the second possibility, we measured intrinsic fluorescence changes of wild type and variant apo‐forms (i.e., without FMN) upon PLP titration. […]
Analyses of PLP binding, based on FMN fluorescence increase observed upon binding of PLP to PNPO, were performed as described in Barile et al. ([2020]). […] Emission spectra were recorded from […], with excitation and emission slits set at 3 and 5 nm, respectively. […]

`Cc1ncc(COP(=O)(O)O)c(C=O)c1O` [PLP, pyridoxal 5′‐phosphate] was tested, and the “type of inhibition of PNP oxidation by PLP” value [1] was “typical hyperbolic increase of 1/V MAX and the parabolic increase of K M/V MAX” and the Kd [2] was 1460 ± 90 nM.
